# Reference: patent publication US4264596A, “Maytansinoids, pharmaceutical compositions thereof and method of use thereof” (Takeda Chemical Industries, Ltd., priority 1980, dated 1981)
# How the values were obtained:
# melanoma B-16 = assay: Antitumor therapeutic test in mice (life span prolongation), melanoma B-16 intraperitoneally transplanted, NCI-protocol 1,300; format: in vivo, mouse; conditions: i.p. once daily for 9 consecutive days
# Description: Therapeutic tests were carried out in mice according to NCI-protocol 1,300, Cancer Chemother, Reports, Part 3, 1972 , Vol.3, No.2, in which melanoma B-16 tumor cells had been intraperitoneally transplanted, compound (I) being administered intraperitoneally once daily for 9 consecutive days.
# Tetrahymena pyriformis W = assay: Antiprotozoal activity, growth inhibition by serial dilution method; format: cell-based; conditions: 28° C., 44 to 48 hours, pH 7.0, serial dilution method, read-out: Antiprotozoal activity, MIC (minimal inhibitory concentration)
# Description: Antiprotozoal activity of compound (I) was assayed with Tetrahymena pyriformis W as the test organism and a medium composed of 20 g tryptose-peptone (Difco Co.), 1 g yeast extract, 2 g glucose, 1000 ml distilled water, 10 ml 1 M phosphate buffer (pH 7.0) as the assay medium. The microorganism was incubated at 28° C. for 44 to 48 hours and the growth inhibitory activity of compound (I) was assayed by the serial dilution method.
structure (smiles),measurement,setting,value
"COC1C=CC=C(C)Cc2cc(OS(C)(=O)=O)c(Cl)c(c2)N(C)C(=O)CC(OC(=O)C(C)C)C2(C)OC2C(C)C2CC1(O)NC(=O)O2 (stereo not drawn) [PDM-3-C20-methenesulfonate, PDM-3-C20-methanesulfonate]","Antitumor activities B-16 (T/C %), life span prolongation",melanoma B-16; 6.2 μg/kg,154%
same,"Antitumor activities B-16 (T/C %), life span prolongation",melanoma B-16; 12.5 μg/kg,195%
same,"Antitumor activities B-16 (T/C %), life span prolongation",melanoma B-16; 25 μg/kg,178%
same,"Antitumor activities B-16 (T/C %), life span prolongation",melanoma B-16; 50 μg/kg,189%
same,"Antitumor activities B-16 (T/C %), life span prolongation",melanoma B-16; 100 μg/kg,218%
same,"Antitumor activities B-16 (T/C %), life span prolongation",melanoma B-16; 200 μg/kg,246%
COC1C=CC=C(C)Cc2cc(OS(=O)(=O)c3ccc(N)cc3)c(Cl)c(c2)N(C)C(=O)CC(OC(=O)C(C)C)C2(C)OC2C(C)C2CC1(O)NC(=O)O2 (stereo not drawn) [PDM-3-C20-p-aminobenzenesulfonate],MIC,Tetrahymena pyriformis W,2 to 4 µg/mL
COC1C=CC=C(C)Cc2cc(OS(=O)(=O)c3ccc(Cl)cc3)c(Cl)c(c2)N(C)C(=O)CC(OC(=O)C(C)C)C2(C)OC2C(C)C2CC1(O)NC(=O)O2 (stereo not drawn) [PDM-3-C20-p-chlorobenzenesulfonate],MIC,Tetrahymena pyriformis W,2 µg/mL
COC1C=CC=C(C)Cc2cc(OS(=O)(=O)c3ccc(C)cc3)c(Cl)c(c2)N(C)C(=O)CC(OC(=O)C(C)C)C2(C)OC2C(C)C2CC1(O)NC(=O)O2 (stereo not drawn) [PDM-3-C20-p-toluenesulfonate],MIC,Tetrahymena pyriformis W,1 to 2 µg/mL
